Data reported in patent US7202265B2, “Indolinone combinatorial libraries and related products and methods for the treatment of disease” (Sugen, Inc., priority 1997, dated 2007).

The compounds below were run on human MET (assay: MET biochemical kinase assay).
Set-up: concentration or dose not given beside the values
From the text: (d) MET Biochemical Kinase Assay
A met biochemical kinase assay may be performed for met generally as described above for other kinases by substituting that or the other kinases. In particular, ELISA plates are coated with goat anti-rabbit Fc antibodies, which are used to capture commercially available (from Santa Cruz Biotechnology) rabbit polyclonal antibodies to the cytoplasmic domain of human MET. […] The chimeric receptors, or MET, from these lysates are captured on the antibody coated plates. After washing away extraneous proteins, test compounds are added and an in vitro kinase assay is performed by addition of an appropriate kinase buffer (containing ATP, divalent metal ions, etc.). Incorporation of phosphate into the captured receptors is detected with an anti-phosphotyrosine antibody conjugate with horse radish peroxidase using TMB as a substrate for calorimetric detection.
O=C1Nc2ccc(S(=O)(=O)N3CCOCC3)cc2C1=Cc1cc(O)c(O)c(Br)c1 [10723/F04] was tested, and the “Met Kinase % Inhibition” value was 94.0%.
With O=C1Nc2ccc(CCCl)cc2C1=Cc1ccccc1Br [10723/G07] the “Met Kinase % Inhibition” value was 43.0%.
With O=C1Nc2ccc(I)cc2C1=Cc1ccc(O)c([N+](=O)[O-])c1 [10724/B03] the “Met Kinase % Inhibition” value was 51.0%.
CCc1ccc(C=C2C(=O)Nc3ccc(I)cc32)o1 [10724/B10] was tested, and the “Met Kinase % Inhibition” value was 95.0%.
For Cc1csc2sc(C=C3C(=O)Nc4ccc(I)cc43)c(C)c12 [10724/B11], the “Met Kinase % Inhibition” value was 43.0%.
With Cc1c(Br)ccc2c1C(=Cc1cccn1-c1ccc(Cl)cc1)C(=O)N2 [10724/C09] the “Met Kinase % Inhibition” value was 5.3%.
For Cc1c(Br)ccc2c1C(=Cc1sc3scc(C)c3c1C)C(=O)N2 [10724/C11], the “Met Kinase % Inhibition” value was 4.9%.
CNS(=O)(=O)c1ccc2c(c1)C(=Cc1cc(C(C)C)c(O)c(C(C)C)c1)C(=O)N2 [10724/D06] was tested, and the “Met Kinase % Inhibition” value was 23.0%.
For O=C1Nc2ccc(S(=O)(=O)Nc3ccc(C(F)(F)F)cc3)cc2C1=Cc1cccn1-c1ccc(Cl)cc1 [10724/E09], the “Met Kinase % Inhibition” value was 27.0%.
With CCc1ccc(C=C2C(=O)Nc3ccc(S(=O)(=O)Nc4ccc(C(F)(F)F)cc4)cc32)o1 [10724/E10] the “Met Kinase % Inhibition” value was 84.0%.
O=C1Nc2ccc(CCCl)cc2C1=Cc1ccc([N+](=O)[O-])c(O)c1 [10724/G04] was tested, and the “Met Kinase % Inhibition” value was 71.0%.
For O=C1Nc2ccc(CCCl)cc2C1=Cc1cc2c3c(c1O)CCCN3CCC2 [10724/G05], the “Met Kinase % Inhibition” value was 61.0%.
For O=C1Nc2ccc(CCCl)cc2C1=Cc1cc2ccccc2o1 [10724/G07], the “Met Kinase % Inhibition” value was 2.3%.
O=C1Nc2ccc(CCCl)cc2C1=Cc1cccn1-c1ccc(Cl)cc1 [10724/G09] was tested, and the “Met Kinase % Inhibition” value was −2.8%.
COc1ccc(Br)c(C=C2C(=O)Nc3c(Br)cc(Br)cc32)c1O [10725/A03] was tested, and the “Met Kinase % Inhibition” value was 68.0%.
In the case of O=CN1CCN(c2ccc(C=C3C(=O)Nc4ccc(I)cc43)cc2)CC1 [10725/B07], the “Met Kinase % Inhibition” value is reported as 74.0%.
Cc1c(Br)ccc2c1C(=Cc1sccc1Br)C(=O)N2 [10725/C02] was tested, and the “Met Kinase % Inhibition” value was 6.3%.
In the case of Cc1c(Br)ccc2c1C(=Cc1ccc(N3CCOCC3)cc1)C(=O)N2 [10725/C08], the “Met Kinase % Inhibition” value is reported as 28.0%.
With Cc1c(Br)ccc2c1C(=Cc1c(Br)cnn1-c1ccc(Cl)cc1)C(=O)N2 [10725/C10] the “Met Kinase % Inhibition” value was −0.6%.
For CNS(=O)(=O)c1ccc2c(c1)C(=Cc1sccc1Br)C(=O)N2 [10725/D02], the “Met Kinase % Inhibition” value was 14.0%.
With CNS(=O)(=O)c1ccc2c(c1)C(=Cc1ccc(N3CCN(C=O)CC3)cc1)C(=O)N2 [10725/D07] the “Met Kinase % Inhibition” value was 37.0%.
CNS(=O)(=O)c1ccc2c(c1)C(=Cc1[nH]c(Cl)c(CC(=O)OC)c1C(=O)OC)C(=O)N2 [10725/D09] was tested, and the “Met Kinase % Inhibition” value was 28.0%.
With Cc1ccc(C=C2C(=O)Nc3ccc(S(=O)(=O)Nc4ccc(C(F)(F)F)cc4)cc32)o1 [10725/E04] the “Met Kinase % Inhibition” value was 59.0%.
For O=C1Nc2ccc(S(=O)(=O)Nc3ccc(C(F)(F)F)cc3)cc2C1=Cc1c(Br)cnn1-c1ccc(Cl)cc1 [10725/E10], the “Met Kinase % Inhibition” value was −4.7%.
For O=C1Nc2ccc(S(=O)(=O)Nc3ccc(C(F)(F)F)cc3)cc2C1=Cc1c[nH]cn1 [10725/E11], the “Met Kinase % Inhibition” value was 9.6%.
COC(=O)Cc1c(Cl)[nH]c(C=C2C(=O)Nc3ccc(CCCl)cc32)c1C(=O)OC [10725/G09] was tested, and the “Met Kinase % Inhibition” value was 4.7%.
In the case of Cc1c(Br)ccc2c1C(=Cc1ccc(Br)o1)C(=O)N2 [10726/C05], the “Met Kinase % Inhibition” value is reported as 58.0%.
For CNS(=O)(=O)c1ccc2c(c1)C(=Cc1ccc(OC)cc1)C(=O)N2 [10726/D11], the “Met Kinase % Inhibition” value was 9.6%.
With O=C1Nc2ccc(S(=O)(=O)Nc3ccc(C(F)(F)F)cc3)cc2C1=Cc1ccc(Br)o1 [10726/E05] the “Met Kinase % Inhibition” value was 71.0%.
In the case of Cc1cn(C)cc1C=C1C(=O)Nc2ccc(S(=O)(=O)Nc3ccc(C(F)(F)F)cc3)cc21 [10726/E06], the “Met Kinase % Inhibition” value is reported as −7.4%.
With O=C1Nc2ccc(S(=O)(=O)Nc3ccc(C(F)(F)F)cc3)cc2C1=Cc1cc(O)c2c(c1O)CCCC2 [10726/E07] the “Met Kinase % Inhibition” value was 84.0%.
